Data: US20160168126A1, “CHEMICAL COMPOUNDS” (SYNGENTA LIMITED, priority 2013, published 2016)

Tested on: a variety of test species
Assay: Post-emergence herbicidal activity (glasshouse, sprayed 8 days after sowing, evaluated after 13 days)
Type: in vivo
Conditions: scale 0-5
Method: Seeds of a variety of test species were sown in standard soil in pots. After 8 days cultivation (post-emergence) under controlled conditions in a glasshouse (at 24/16° C., day/night; 14 hours light; 65% humidity), the plants were sprayed with an aqueous spray solution derived from the formulation of the technical active ingredient in acetone/water (50:50) solution containing 0.5% Tween 20 (polyoxyethelyene sorbitan monolaurate, CAS RN 9005-64-5). The test plants were then grown in a glasshouse under controlled conditions (at 24/16° C., day/night; 14 hours light; 65% humidity) and watered twice daily. After 13 days, the test was evaluated (5=total damage to plant; 0=no damage to plant).

SMILES	Post-emergence herbicidal damage score, ABUTH (Abutilon theophrasti) (1000 g/ha)	Post-emergence herbicidal damage score, ALOMY (Alopecurus myosuroides) (1000 g/ha)	Post-emergence herbicidal damage score, AMARE (Amaranthus retroflexus) (1000 g/ha)	Post-emergence herbicidal damage score, ECHCG (Echinochloa crus-galli) (1000 g/ha)	Post-emergence herbicidal damage score, SETFA (Setaria faberi) (1000 g/ha)	Post-emergence herbicidal damage score, ZEAMX (Zea mays) (1000 g/ha)	Post-emergence herbicidal damage score, ABUTH (Abutilon theophrasti) (250 g/ha)	Post-emergence herbicidal damage score, ALOMY (Alopecurus myosuroides) (250 g/ha)	Post-emergence herbicidal damage score, AMARE (Amaranthus retroflexus) (250 g/ha)	Post-emergence herbicidal damage score, ECHCG (Echinochloa crus-galli) (250 g/ha)	Post-emergence herbicidal damage score, SETFA (Setaria faberi) (250 g/ha)	Post-emergence herbicidal damage score, ZEAMX (Zea mays) (250 g/ha)
CC1=C(Cl)C(O)N(c2cc(C(F)(F)F)[nH]n2)C1=O (stereo not drawn) [Compound A2]	4	1	1	2	2	0	–	–	–	–	–	–
Cn1nc(N2C(=O)C(CCl)=C(Cl)C2O)cc1C(C)(C)C (stereo not drawn) [Compound E1]	4	4	1	5	5	0	–	–	–	–	–	–
CC1=C(Cl)C(O)N(c2cc(CCC(C)C)n(C)n2)C1=O (stereo not drawn) [Compound B12]	1	0	0	0	0	0	–	–	–	–	–	–
CC1=C(Cl)C(O)N(c2ccn(C)n2)C1=O (stereo not drawn) [Compound B31]	0	1	3	1	1	1	–	–	–	–	–	–
CC1=C(Cl)C(O)N(c2cc(C(C)(C)C)n(C)n2)C1=O (stereo not drawn) [Compound B2, 1-(5-tert-butyl-1-methyl-1H-pyrazol-3-yl)-4-chloro-5-hydroxy-3-methyl-1,5-dihydro-pyrrol-2-one]	5	5	5	5	5	2	–	–	–	–	–	–
CCC1CCCn2nc(N3C(=O)C(C)=C(Cl)C3O)cc21 (mixture of isomers) [Compound G5]	5	4	5	4	4	0	–	–	–	–	–	–
CC(C)=Cc1cc(N2C(=O)C(C)=C(Cl)C2O)nn1C (stereo not drawn) [Compound B7, 3-chloro-2-hydroxy-4-methyl-1-[1-methyl-5-(2-methylprop-1-enyl)pyrazol-3-yl]-2H-pyrrol-5-one]	4	0	3	1	5	2	–	–	–	–	–	–
CC1=C(Cl)C(O)N(c2nn(C)c(C(C)(C)CCl)c2Cl)C1=O (stereo not drawn) [Compound D3]	1	0	0	2	1	1	–	–	–	–	–	–
CC1=C(Cl)C(O)N(c2cc3n(n2)CCC3C)C1=O (mixture of isomers) [Compound G1]	5	4	5	5	4	2	–	–	–	–	–	–
CC1=C(Cl)C(O)N(c2cc3n(n2)CCCC3(C)C)C1=O (stereo not drawn) [Compound G4]	5	5	5	5	5	2	–	–	–	–	–	–
COC1=C(C)C(=O)N(c2cc(C(C)(C)C)n(C)n2)C1O (stereo not drawn) [Compound I2]	–	–	–	–	–	–	5	4	5	3	4	1
CCC1CCn2nc(N3C(=O)C(C)=C(Cl)C3O)cc21 (mixture of isomers) [Compound G3]	5	4	5	4	5	2	–	–	–	–	–	–
CC1=C(Cl)C(O)N(c2cc(/C=C/C(C)(C)C)n(C)n2)C1=O (stereo not drawn) [Compound B11]	0	0	0	0	0	0	–	–	–	–	–	–
CCOC(C)(CC)c1cc(N2C(=O)C(C)=C(Cl)C2O)nn1C (mixture of isomers) [Compound B14]	5	3	4	4	4	1	–	–	–	–	–	–
CC1=C(Cl)C(OC(=O)OCC(C)C)N(c2cc(C(C)(C)C)n(C)n2)C1=O (stereo not drawn) [Compound F1]	5	4	5	5	5	3	–	–	–	–	–	–
CC1=C(Cl)C(O)N(c2nn(C)c3c2CCC3(C)C)C1=O (stereo not drawn) [Compound B18]	5	4	5	5	5	4	–	–	–	–	–	–
CC1=C(Br)C(O)N(c2nn(C)c3c2CCC3(C)C)C1=O (stereo not drawn) [Compound H10]	5	5	5	4	5	3	–	–	–	–	–	–
CC1=C(Cl)C(O)N(c2nn(C)c3c2C2CCC3C2)C1=O (stereo not drawn) [Compound B29]	5	4	5	5	5	3	–	–	–	–	–	–
CCC(C)(OC)c1cc(N2C(=O)C(C)=C(Cl)C2O)nn1C (mixture of isomers) [Compound B13]	5	3	3	2	4	0	–	–	–	–	–	–
CCC(C)c1cc(N2C(=O)C(C)=C(Cl)C2O)nn1C (mixture of isomers) [Compound B15]	5	4	5	5	5	2	–	–	–	–	–	–
CSc1cc(N2C(=O)C(C)=C(Cl)C2O)nn1C (stereo not drawn) [Compound B17]	4	2	3	4	5	1	–	–	–	–	–	–
CCn1nc(N2C(=O)C(C)=C(Cl)C2O)cc1C(F)(F)F (stereo not drawn) [Compound C1]	3	3	5	4	0	1	–	–	–	–	–	–
CC1=C(Cl)C(O)N(c2cc(C(C)C)n(C)n2)C1=O (stereo not drawn) [Compound B5]	–	–	–	–	–	–	5	4	5	5	4	3
